Where two headings read alike, the source gives them in different places.
Assays:
UBE3A-AS [1] = assay: UBE3A-AS steady state RNA (TaqMan qRT-PCR) in GABAergic iPSC-derived neurons; assay type: cell-based, human; conditions: for IC50 Ratio relative to ASO-4.4.PS.L: equivalence; for IC50 Ratio relative to ASO-4.4.PS.L / Limit Exceeded (equivalence of IC50 relative to ASO-4.4.PS.L): two one-sided tests; for Relative Potency: relative to ASO-4.4.PS.L = 1
UBE3A-AS [2] = assay: as above; assay type: cell-based, human; conditions: for IC50 / Relative Potency: optimized ASOs; for IC50: 3-parameter logistic; for Relative Potency: relative to ASO 4.S = 1
Procedure: Human-specific ASOs were then designed to target this region, which included four ASOs targeting non-polymorphic regions in human and regions conserved (100%) with macaque (Rhesus and Cynomolgus) (Table 7 and FIG. 3A). Human induced pluripotent stem cell (iPSC) neural precursor cells were differentiated into GABAergic neurons for 14 DIV and then treated with a control ASO [ASO-C (10 μM, n=3)], Topotecan [Topo (1 μM, n=2)], and six ASOs targeting UBE3A-AS [ASO-1, ASO-2, ASO-3, ASO-4, ASO-5, and ASO-6 (10 μM, n=3)]. Additionally, an ASO targeting an intronic region downstream of SNORD109B was included (ASO-7). Six days post-treatment (20 DIV), RNA was isolated from the neurons and the steady state RNA levels of UBE3A-AS and UBE3A were estimated relative to the control treatment (FIG. 3B).
The potency of ASO-4 was further examined given its effect on UBE3A-AS RNA levels. GABAergic iPSC-derived neurons were treated at 14 DIV with a 10-point ½ log dose response curve of ASO-4 and Topotecan, as a positive control and for comparisons between treatment [1 nM, 3 nM, 10 nM, 30 nM, 100 nM, 300 nM, 1 μM, 3 μM, 10 μM, and 30 μM (ASO-4, n=6; Topotecan, n=2)]. At 20 DIV, the steady state RNA levels of UBE3A-AS were measured and dose response curves fitted to estimate the IC50 and Emax (i.e., maximum UBE3A-AS inhibition) (Table 9 and FIG. 4A). […]
Additional ASOs targeting the 5′-end of UBE3A-AS were then designed to optimize the target sequences of ASO-4 (ASO-4.1, ASO-4.2, ASO-4.3, and ASO-4.4) as well as two other target regions, ASO-3 (ASO-3.1 and ASO-3.2) and ASO-6 (ASO-6.1) (Table 11). Additionally, ASO-4 was manufactured at two different vendors for comparative purposes (ASO-4.S, Sigma; ASO-4.I, Integrated DNA Technologies). Human iPSC-derived neurons (GABAergic) were treated at 14 DIV with a […] ½ log dose curve of ASO-3.1, ASO-3.2, ASO-4.S, ASO-4.I, ASO-4.1, ASO-4.2, ASO-4.3, ASO-4.4, and ASO-6.1 [30 nM, 100 nM, 300 nM, 1 μM (n=6)]. At 20 DIV, the IC50 and Emax of each ASO was estimated as described above (FIG. 5A-B and Table 12). […] No significant difference was observed between ASO-4.S and ASO-4.I.
The potency of ASO-4 and ASO-6.1 was further examined in iPSC-derived neurons at a later time point in differentiation. GABAergic iPSC-derived neurons were treated at 29 DIV with a 10-point ½ log dose response curve of ASO-4 and ASO-6.1 [1 nM, 3 nM, 10 nM, 30 nM, 100 nM, 300 nM, 1 μM, 3 μM, 10 μM, and 30 μM (n=3)]. At 35 DIV, the IC50 and Emax of each ASO was estimated as described above (FIG. 5C-D and Table 14). The dose response curves of ASO-4 and ASO-6.1 were not similar (Parallelism test: F(3,172)=22.7, p<0.0001).
GABAergic and glutamatergic induced pluripotent stem cell (iPSC) derived neural precursor cells (NRC-100-010-001 and GNC-301-030-001, Cellular Dynamics International, Madison Wis.) were differentiated into neurons according to the manufactures protocol. Briefly, neural precursor cells were thawed and resuspended in chemically defined medium and added to sterile-culture plates coated with poly-D-lysine and laminin. The medium was replaced 24 hr after plating and then one-half of the medium was replaced every 3-5 days afterwards.
For cultured iPSC-derived neurons, RNA isolation and cDNA synthesis were performed using the Cell-to-CT kit (Thermo Fisher Scientific) in a lysate volume of 55 μl.
The steady state RNA levels of target transcripts were measured using TaqMan quantitative reverse-transcription PCR (qRT-PCR) assays. Total reaction volume was 10 uL, including 2 μl of cDNA, 1× Gene Expression Master mix (4369016, Thermo Fisher Scientific, Waltham, Mass.), and 1× TaqMan primer assay (Thermo Fisher Scientific). Cycling conditions were 2 minutes at 50° C., 10 minutes at 95° C., and 40 cycles of 15 seconds at 95° C. and 1 minute at 60° C., with readings taken at the 60° C. step of every cycle. […]

[3] = candidate ASOs, 18 DIV to 24 DIV
[4] = candidate ASOs, 18 DIV to 24 DIV, 4-parameter logistic (Hill)
[5] = candidate ASOs, treated 18 DIV, RNA 24 DIV, 10-point dose curve, n=2, full model, 4-parameter logistic (Hill)
[6] = Cluster 1 ASOs, 18 DIV to 24 DIV, parallel model, 4 Parameter logistic (Hill)
[7] = 14 DIV to 20 DIV, parallel model, read-out: IC50 (M), UBE3A-AS
[8] = treated 14 DIV, RNA 20 DIV, 5-point dose curve 30 nM-3 μM, full model, read-out: IC50 Estimate, UBE3A-AS

| Substance | 30 μM (Mean), normalized UBE3A-AS RNA level relative to vehicle (UBE3A-AS [1]; [3]) | Emax (normalized UBE3A-AS RNA level relative to vehicle) (UBE3A-AS [1]; [4]) | IC50 (UBE3A-AS [1]; [5]) [µM] | IC50 (UBE3A-AS [1]; [6]) [µM] | IC50 Ratio relative to ASO-4.4.PS.L (UBE3A-AS [1]; Cluster 1 ASOs) | Relative Potency (UBE3A-AS [1]; Cluster 1 ASOs, parallel model) | Limit Exceeded (equivalence of IC50 relative to ASO-4.4.PS.L) (UBE3A-AS [1]; Cluster 1 ASOs) | 3 μM (Mean), Emax, normalized UBE3A-AS RNA level relative to vehicle (UBE3A-AS [2]; treated 14 DIV, RNA 20 DIV) | IC50 (UBE3A-AS [2]; [7]) [M] | Relative Potency (UBE3A-AS [2]; parallel model) | IC50 (UBE3A-AS [2]; [8]) [M] |
| --- | --- | --- | --- | --- | --- | --- | --- | --- | --- | --- | --- |
| U^O*A^O-G^O*A^O-A^O*t-g*g-c*a-c*a-t*c-t*C^O-U^O*U^O-G^O*G^o [ASO-4.0.PO-2.O] | 0.6 | −0.3 | 130 | – | – | – | – | – | – | – | – |
| C^O*U^O-G^O*G^O-t*g-t*c-a*a-c*a-a*g-C^O*C^O-A^O*A^o [ASO-6.1.PO-2.O] | 0.3 | – | – | – | – | – | – | – | – | – | – |
| T^M*A^M*G^M*A^M*A^M-t*g*g*c*a*c*a*t*c*t-5mC^M*T^M*T^M*G^M*G^M [ASO-4.0.PO-1.M] | 0.05 | 0.02 | 0.278 | 0.278 | 0.87 | 0.2 | Lower | – | – | – | – |
| 5mC^M*T^M-G^M*G^M-t*g-t*c-a*a-c*a-a*g-5mC^M*5mC^M-A^M*A^M [ASO-6.1.PO-2.M] | 0.3 | −1.2 | 269 | – | – | – | – | – | – | – | – |
| G^O*U^O*U^O*G^O*a*g*t*g*g*t*g*t*c*a*G^O*U^O*U^O*U^O*C^O [ASO-3.1] | – | – | – | – | – | – | – | 0.51 | 2.81e-06 | 0.53 | 2.98e-06 |
| T^L*G^L-G^L*t-g*t-c*a-a*c-a*a-g*5mC^L-5mC^L-A^L*A^L [ASO-6.1.PO-2.L] | 0.4 | 0.3 | 0.734 | – | – | – | – | – | – | – | – |
| A^O*G^O*A^O*A^O*t*g*g*c*a*c*a*t*c*t*C^O*U^O*U^O*G^O*G^O [ASO-4.2] | – | – | – | – | – | – | – | 0.31 | 1.24e-06 | 1.21 | 1.08e-06 |
| T^M*A^M*G^M*A^M*A^M*t*g*g*c*a*c*a*t*c*t*5mC^M*T^M*T^M*G^M*G^M [ASO-4.0.PS.M] | 0.05 | 0.05 | 0.3 | 0.262 | 0.86 | 0.2 | Lower | – | – | – | – |
| T^L*G^L*G^L*t*g*t*c*a*a*c*a*a*g*5mC^L*5mC^L*A^L*A^L [ASO-6.1.PS.L] | 0.04 | −0.07 | 0.362 | 0.281 | 0.85 | 0.2 | Lower | – | – | – | – |
| T^M*A^M-G^M*A^M-A^M*t-g*g-c*a-c*a-t*c-t*5mC^M*T^M*T^M-G^M*G^M [ASO-4.0.PO-2.M] | 0.5 | – | – | – | – | – | – | – | – | – | – |
| 5mC^M*T^M*G^M*G^M-t*g*t*c*a*a*c*a*a*g-5mC^M*5mC^M*A^M*A^M [ASO-6.1.PO-1.M] | 0.04 | −0.02 | 0.166 | 0.177 | 0.90 | 0.3 | equivalent IC50 values | – | – | – | – |
| A^O*U^O*A^O*G^O*A^O*a*t*g*g*c*a*c*a*t*c*U^O*C^O*U^O*U^O*G^O [ASO-4.1] | – | – | – | – | – | – | – | 0.42 | – | – | 2.27e-06 |
| U^O*U^O*G^O*A^O*g*t*g*g*t*g*t*c*a*g*U^O*U^O*U^O*C^O [ASO-3.2] | – | – | – | – | – | – | – | 0.44 | 1.85e-06 | 0.81 | 1.88e-06 |
| U^O*A^O*G^O*A^O*A^O-t*g*g*c*a*c*a*t*c*t-C^O*U^O*U^O*G^O*G^o [ASO-4.0.PO-1.O] | 0.1 | 0.05 | 0.766 | – | – | – | – | – | – | – | – |
| C^O*U^O*G^O*G^O*t*g*t*c*a*a*c*a*a*g*C^O*C^O*A^O*A^o [ASO-6.1.PS.O] | 0.05 | −0.2 | 0.532 | 0.432 | 0.83 | 0.1 | Lower | – | – | – | – |
| T^L*G^L*G^L-t*g*t*c*a*a*c*a*a*g-5mC^L*5mC^L*A^L*A^L [ASO-6.1.PO-1.L] | 0.2 | 0.03 | 1.89 | – | – | – | – | – | – | – | – |
| U^O*A^O*G^O*A^O*A^O*t*g*g*c*a*c*a*t*c*t*C^O*U^O*U^O*G^O*G^o [ASO-4.0.PS.O] | 0.1 | 0.06 | 1.27 | – | – | – | – | – | – | – | – |
| A^O*G^O*A^O*A^O*t*g*g*c*a*c*a*t*c*t*C^O*U^O*U^O*G^O [ASO-4.4] | – | – | – | – | – | – | – | 0.44 | 2.04e-06 | 0.73 | 2.11e-06 |
| U^O*A^O*G^O*A^O*a*t*g*g*c*a*c*a*t*c*U^O*C^O*U^O*U^O*G^O [ASO-4.3] | – | – | – | – | – | – | – | 0.40 | 1.96e-06 | 0.76 | 2.03e-06 |
